From patent US5081112A, “Method for treating hyperlipidemia” (Otsuka Pharmaceutical Factory Inc., priority 1986, dated 1992)
Where two headings read alike, the source gives them in different places.

Key:
[1] = tested on: Triton WR-1339-induced hyperlipidemia in rat; test: antilipotropic effect in Triton WR-1339-induced hyperlipidemia in rat; assay type: in vivo, Wistar-strain male rats; conditions: 50 mg/kg oral, vs control
Source text: Wistar-strain male rats of 5-9 week age were used as test animals. One test group consisting of six (6) rats.
[a] is a determined value obtained from the control group, and
[b] is a determined value obtained from the test group).

[2] = tested on: biosynthetic pathway of cholesterol; test: inhibitory effect in biosynthetic pathway of cholesterol; assay type: biochemical; conditions: 10^-4 M; rat liver microsomes and soluble fraction; 90 min, 100 µM
Description: Test for determining inhibitory effect in biosynthetic pathway of cholesterol
Each one of the test compounds was added to rat liver microsomes fraction (containing 0.2 mg of protein) and soluble fraction (containing 2 mg of protein), then the volume of the mixture was adjusted to 100 microliters by adding 0.1 M-potassium phosphate buffer solution (pH 7.4), then this mixture was incubated at 37° C. for 10 minutes.
After the incubation, the reaction was started by adding 200 microliters of a solution containing 1 mM ATP, 10 mM glucose-1-phosphate, 6 mM glutathione, 6 mM MgCl2, […], 0.25 mM […], 0.25 mM NADP, and 1 mM [1-^14 C] sodium acetate (3.0 mCi/mM).
The whole mixture was incubated at 37° C. for 90 minutes, then the reaction was terminated by adding […] of 15%-KOH (a 95% ethanol solution), next 2 mg of cholesterol was added thereto, saponified at 75° C. for 1 hour, and cholesterol was extracted with petroleum ether, the extract was concentrated to dryness. To the residue thus obtained was added with 2.5 ml of a mixture of acetone-diethyl ether (1:1) and 2.5 ml of 1%-digitonin (a 50% ethanol solution), then this solution was allowed to stand for 1 hour in cooling condition by using ice-water to precipitate cholesterol. The precipitate was washed with acetone, a mixture of acetonediethyl ether (1:1) and diethyl ether in this order, then the radioactivity of the residue was measured by using a liquid scintillation counter.
Control test was also conducted by the procedures similar to those mentioned above in the test group, except that each one of the test compounds was not used.
Inhibitory effect in biosynthetic pathway of cholesterol performed by each one of the test compounds was calculated, in terms of inhibitory ratio (%), from the formula on the basis of the radioactivity of the control group as follows: [formula] (wherein
[c] is a radioactivity of the control group, and
[d] is a radio activity of the test group).

[3] = 24 hours after Triton WR-1339 (400 mg/kg, tail vein), read-out: lowering ratio of serum triglycerides, 24 hours after Triton WR-1339
[4] = 24 hours after Triton WR-1339 (400 mg/kg, tail vein), read-out: lowering ratio of total serum cholesterol, 24 hours after Triton WR-1339
[5] = 48 hours after Triton WR-1339 (400 mg/kg, tail vein), read-out: lowering ratio of serum triglycerides, 48 hours after Triton WR-1339
[6] = 48 hours after Triton WR-1339 (400 mg/kg, tail vein), read-out: lowering ratio of total serum cholesterol, 48 hours after Triton WR-1339

Row | Structure (SMILES) | inhibition in vivo at 50 mg/kg [1, 3] [%] | inhibition in vivo at 50 mg/kg [1, 4] [%] | inhibition in vivo at 50 mg/kg [1, 5] [%] | inhibition in vivo at 50 mg/kg [1, 6] [%] | Inhibitory ratio of cholesterol biosynthesis [2] [%]
1 | CCOP(=O)(Cc1ccc(C(=O)Nc2ccc(Cl)c(C(F)(F)F)c2)cc1)OCC [compound 9] | 11.3 | 11.7 | 68.4 | 42.3 | –
2 | CCOP(=O)(Cc1ccc(C(=O)N(Cc2ccccc2)c2ccc(C(F)(F)F)cc2)cc1)OCC [compound 12] | 60.4 | 36.9 | 83.9 | – | –
3 | CCOP(=O)(Cc1ccc(C(=O)Nc2ccc(C(F)(F)F)cc2)cc1)OCC [compound 13] | 73.9 | 33.7 | 95.4 | 64.4 | –
4 | CCOP(=O)(Cc1ccc(C(=O)N(C)c2ccc(Cl)cc2)cc1)OCC [compound 14] | 46 | 29.3 | – | 49.4 | –
5 | CCOP(=O)(Cc1ccc(C(=O)N(c2ccc(Cl)cc2)C2CCCC2)cc1)OCC [compound 15] | 23 | 9.8 | 55.8 | 22.6 | –
6 | CCOP(=O)(Cc1ccc(C(=O)Nc2ccc(I)cc2)cc1)OCC [compound 16] | 94.1 | 64 | 95.3 | 75.1 | –
7 | CCOP(=O)(Cc1ccc(C(=O)N(Cc2ccc(Cl)cc2)c2ccc(Cl)c(Cl)c2)cc1)OCC [compound 17] | 56.8 | 27.8 | 94.1 | 64.4 | –
8 | CCOP(=O)(Cc1ccc(C(=O)Nc2ccc([N+](=O)[O-])cc2)cc1)OCC [compound 18] | 54.4 | 32.7 | 74.9 | 37.5 | –
9 | CCOP(=O)(Cc1ccc(C(=O)Nc2ccc(C#N)cc2)cc1)OCC [compound 19] | 90.5 | 60.6 | 94.7 | 63.6 | –
10 | CCOP(=O)(Cc1ccc(C(=O)Nc2ccc(F)cc2)cc1)OCC [compound 20] | 57.3 | 27 | 90.5 | 55.1 | –
11 | CCOP(=O)(Cc1ccc(C(=O)N(Cc2ccc(Cl)cc2)c2ccc(Cl)cc2)cc1)OCC [compound 21] | 47.9 | 15.9 | 89.1 | 52.3 | –
12 | CCOP(=O)(Cc1ccc(C(=O)Nc2ccc(C)cc2)cc1)OCC [compound 22] | 38.6 | 6.9 | 28.1 | 29 | 32.2
13 | CCOP(=O)(Cc1ccc(C(=O)Nc2ccc(OC)cc2)cc1)OCC [compound 23] | 25.5 | 17.3 | 27.6 | 32.5 | –
14 | CCOP(=O)(Cc1cccc(C(=O)N(c2ccccc2)c2ccc(C(=O)OC)cc2)c1)OCC [compound 24] | – | – | – | – | 21.6
15 | CCOP(=O)(Cc1ccccc1C(=O)N(Cc1ccc(C#N)cc1)c1ccc(OC)cc1)OCC [compound 25] | – | – | – | – | 20.1
16 | CCOP(=O)(Cc1ccc(C(=O)Nc2ccccc2O)cc1)OCC [compound 28] | – | – | – | – | 22.1
17 | CCOP(=O)(Cc1ccc(C(=O)NCCc2ccc(OC)c(OC)c2)cc1)OCC [compound 30] | – | – | – | – | 28.9
18 | CCCCCCCCN(C(=O)c1ccc(CP(=O)(OCC)OCC)cc1)c1ccccc1 [compound 33] | – | – | – | – | 89.6
19 | CCCCCCCCC(c1ccc(C(=O)N(CCCCCCCC)c2ccccc2)cc1)P(=O)(OCC)OCC (centres unmarked) [compound 34] | – | – | – | – | 85.2
20 | CCOP(=O)(Cc1ccc(C(=O)N(c2ccccc2)C2CCCCC2)cc1)OCC [compound 35] | – | – | – | – | 39.2
21 | CCOP(=O)(Cc1ccc(C(=O)N(Cc2ccc(C)cc2)c2ccccc2)cc1)OCC [compound 37] | – | – | – | – | 82.8
22 | CCOP(=O)(Cc1ccc(C(=O)N(Cc2ccc(OC)cc2)c2ccccc2)cc1)OCC [compound 38] | – | – | – | – | 85.2
23 | CCOP(=O)(Cc1ccc(C(=O)N(Cc2ccc([N+](=O)[O-])cc2)c2ccccc2)cc1)OCC [compound 39] | – | – | – | – | 74.6

Row | Structure (SMILES) | inhibition in vivo at 50 mg/kg [1, 3] [%] | inhibition in vivo at 50 mg/kg [1, 4] [%] | inhibition in vivo at 50 mg/kg [1, 5] [%] | inhibition in vivo at 50 mg/kg [1, 6] [%] | Inhibitory ratio of cholesterol biosynthesis [2] [%]
24 | CCOP(=O)(Cc1ccc(C(=O)N(Cc2cccc(C(F)(F)F)c2)c2ccccc2)cc1)OCC [compound 40] | – | – | – | – | 91.6
25 | CCOP(=O)(Cc1ccc(C(=O)N(CCc2ccccc2)c2ccccc2)cc1)OCC [compound 42] | – | – | – | – | 86.7
26 | CCOP(=O)(Cc1ccc(C(=O)N(C)Cc2ccccc2)cc1)OCC [compound 43] | – | – | – | – | 23.8
27 | CCOP(=O)(Cc1ccc(C(=O)N(Cc2ccccc2)C(C)C)cc1)OCC [compound 44] | – | – | – | – | 46.2
28 | CCOP(=O)(Cc1ccc(C(=O)N(Cc2ccccc2)C2CCCCC2)cc1)OCC [compound 45] | – | – | – | – | 76.9
29 | CCOP(=O)(Cc1ccc(C(=O)N(Cc2ccccc2)c2ccc(C)cc2)cc1)OCC [compound 46] | – | – | – | – | 59.1
30 | CCOP(=O)(Cc1ccc(C(=O)N(Cc2ccccc2)c2ccccc2F)cc1)OCC [compound 47] | – | – | – | – | 67.2
31 | CCOP(=O)(Cc1ccc(C(=O)N(Cc2ccccc2)c2ccc(OC)cc2)cc1)OCC [compound 48] | – | – | – | – | 63.7
32 | CCOP(=O)(Cc1ccc(C(=O)N(Cc2ccccc2)c2ccc(C#N)cc2)cc1)OCC [compound 49] | – | – | – | – | 75.2
33 | CCOP(=O)(OCC)C(Cc1ccccc1)c1ccc(C(=O)N(Cc2ccccc2)c2cccc(C(F)(F)F)c2)cc1 (centres unmarked) [compound 51] | – | – | – | – | 70.4
34 | CCOP(=O)(Cc1ccc(C(=O)N(Cc2ccccc2)c2ccc(OC)c(OC)c2)cc1)OCC [compound 53] | – | – | – | – | 59.0
35 | CCOP(=O)(Cc1ccc(C(=O)N(Cc2ccccc2)Cc2ccccc2)cc1)OCC [compound 54] | – | – | – | – | 69.7
36 | CCOP(=O)(Cc1ccc(C(=O)Nc2ccccc2Br)cc1)OCC [compound 55] | – | – | – | – | 57.1
37 | CCOP(=O)(Cc1ccc(C(=O)N2CCN(C)CC2)cc1)OCC [compound 56] | – | – | – | – | 23.6
38 | CCOP(=O)(Cc1ccc(C(=O)N2CCN(c3ccccc3C)CC2)cc1)OCC [compound 57] | – | – | – | – | 41.9
39 | CCOP(=O)(Cc1ccc(C(=O)N2CCN(c3ccc(OC)cc3)CC2)cc1)OCC [compound 59] | – | – | – | – | 55.1
40 | CCOP(=O)(Cc1ccc(C(=O)N2CCN(c3cccc(C(F)(F)F)c3)CC2)cc1)OCC [compound 60] | – | – | – | – | 24.9
41 | CCOP(=O)(Cc1ccc(C(=O)N2CCN(Cc3ccccc3)CC2)cc1)OCC [compound 61] | – | – | – | – | 58.3
42 | CCOP(=O)(OCC)C(C)c1ccc(C(=O)N(CCc2ccccc2)Cc2ccccc2)cc1 (centres unmarked) [compound 62] | – | – | – | – | 80.2
43 | CCOP(=O)(Cc1ccc(C(=S)N(C)c2ccccc2)cc1)OCC [compound 67] | – | – | – | – | 32.5
44 | CCOP(=O)(Cc1ccc(C(=S)N(C)Cc2ccccc2)cc1)OCC [compound 68] | – | – | – | – | 57.2
45 | CCOP(=O)(Cc1ccc(C(=S)N(Cc2ccccc2)Cc2ccccc2)cc1)OCC [compound 69] | – | – | – | – | 85.3
